Laboratory results taken from patent US20250064945A1 (Arvinas Operations, Inc., priority 2021, published 2025).

Molecular target: T1, BRM (Homo sapiens, UniProt P51531)
T1 construct: In-Cell Western Screen of BRM Degradation in SW1573 Cells; endogenous in cells; host or cells: SW1573 cells
Experiment: Western blot / In-Cell Western screen of BRM degradation in SW1573 cells
Type: cell-based
Conditions: overnight (18-20 hours) treatment; for Dmax: read-out: Dmax (%) (% degraded)
Method in brief: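 SW1573 cells treated overnight (18-20 hours) with compound at 0.1% final DMSO. BRM measured either by Western blot of RIPA lysates with alpha-tubulin control and chemiluminescent detection, or by In-Cell Western on fixed, permeabilized cells with LI-COR dual-channel read against alpha-tubulin; Dmax and DC50 derived.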

T1 sequence (P51531 whole entry): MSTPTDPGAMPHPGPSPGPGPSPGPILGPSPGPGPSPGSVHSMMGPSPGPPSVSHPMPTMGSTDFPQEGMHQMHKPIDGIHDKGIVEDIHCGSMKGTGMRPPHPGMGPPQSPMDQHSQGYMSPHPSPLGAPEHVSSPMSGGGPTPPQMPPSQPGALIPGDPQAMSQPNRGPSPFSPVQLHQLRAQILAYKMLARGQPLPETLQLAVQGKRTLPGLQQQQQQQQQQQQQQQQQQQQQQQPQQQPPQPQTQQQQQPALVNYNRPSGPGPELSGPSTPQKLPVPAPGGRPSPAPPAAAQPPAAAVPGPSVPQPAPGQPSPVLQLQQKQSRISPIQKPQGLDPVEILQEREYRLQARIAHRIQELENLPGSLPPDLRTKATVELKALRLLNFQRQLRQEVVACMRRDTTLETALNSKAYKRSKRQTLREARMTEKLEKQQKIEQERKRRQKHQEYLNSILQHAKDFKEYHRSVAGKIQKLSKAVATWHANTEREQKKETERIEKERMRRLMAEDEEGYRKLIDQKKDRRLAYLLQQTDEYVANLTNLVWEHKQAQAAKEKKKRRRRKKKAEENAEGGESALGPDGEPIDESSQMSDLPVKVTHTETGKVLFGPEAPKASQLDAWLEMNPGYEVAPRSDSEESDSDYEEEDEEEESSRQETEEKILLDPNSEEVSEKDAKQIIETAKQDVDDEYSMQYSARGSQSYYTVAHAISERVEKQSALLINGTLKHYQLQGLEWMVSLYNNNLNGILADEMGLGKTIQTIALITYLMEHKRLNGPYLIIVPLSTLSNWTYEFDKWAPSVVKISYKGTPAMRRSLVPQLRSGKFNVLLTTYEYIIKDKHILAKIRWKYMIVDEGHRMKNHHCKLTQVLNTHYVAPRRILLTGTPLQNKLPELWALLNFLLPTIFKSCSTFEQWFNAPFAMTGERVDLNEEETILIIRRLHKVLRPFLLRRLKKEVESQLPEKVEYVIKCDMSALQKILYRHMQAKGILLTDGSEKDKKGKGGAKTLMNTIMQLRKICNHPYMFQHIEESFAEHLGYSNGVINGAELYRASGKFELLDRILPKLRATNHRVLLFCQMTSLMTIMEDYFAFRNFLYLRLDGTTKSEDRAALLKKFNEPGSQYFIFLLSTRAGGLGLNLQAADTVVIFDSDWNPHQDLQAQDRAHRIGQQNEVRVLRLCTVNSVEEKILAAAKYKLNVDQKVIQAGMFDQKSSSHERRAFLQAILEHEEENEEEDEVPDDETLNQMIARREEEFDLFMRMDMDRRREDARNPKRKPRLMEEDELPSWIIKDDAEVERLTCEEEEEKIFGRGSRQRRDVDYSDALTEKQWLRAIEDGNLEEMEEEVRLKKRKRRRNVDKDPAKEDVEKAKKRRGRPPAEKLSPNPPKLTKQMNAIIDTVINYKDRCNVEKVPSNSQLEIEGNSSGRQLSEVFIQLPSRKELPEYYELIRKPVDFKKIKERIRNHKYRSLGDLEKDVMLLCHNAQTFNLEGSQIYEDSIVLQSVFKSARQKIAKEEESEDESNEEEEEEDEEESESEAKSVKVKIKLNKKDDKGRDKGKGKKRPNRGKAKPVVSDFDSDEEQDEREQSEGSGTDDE

For `Cc1ncsc1-c1ccc([C@H](C)NC(=O)[C@@H]2C[C@@H](O)CN2C(=O)[C@@H](c2cc(N3CCC(CN4CCC(O[C@H]5C[C@H](N6CCC(CN7CCN(c8cc(-c9ccccc9O)nnc8N)CC78COC8)CC6)C5)CC4)CC3)no2)C(C)C)cc1` [Compound 13, (2S,4R)-4-hydroxy-N-[(1S)-1-[4-(4-methyl-1,3-thiazol-5-yl)phenyl]ethyl]-1-[(2R)-3-methyl-2-{3-[4-({4-[(1r,3r)-3-[4-({8-[3-amino-6-(2-hydroxyphenyl)pyridazin-4-yl]-2-oxa-5,8-diazaspiro[3.5]nonan-5-yl}methyl)piperidin-1-yl]cyclobutoxy]piperidin-1-yl}methyl)piperidin-1-yl]-1,2-oxazol-5-yl}butanoyl]pyrrolidine-2-carboxamide], the DC50 was less than 2.5 nM and the Dmax was greater than 75%.
`CC(C)[C@@H](C(=O)N1C[C@H](O)C[C@H]1C(=O)N[C@@H](C)c1ccc(-c2ccnn2C)cc1)c1cc(N2CCC(CN3CCC(O[C@H]4C[C@H](C#Cc5cn6cc(-c7ccccc7O)nc6nc5N)C4)CC3)CC2)no1` [Compound 33] showed a DC50 of less than 2.5 nM and a Dmax greater than 75%.
`Cc1ncsc1-c1ccc([C@H](C)NC(=O)[C@@H]2C[C@@H](O)CN2C(=O)[C@H](c2cc(OCCCC#Cc3cn4cc(-c5ccccc5O)nc4nc3N)no2)C(C)C)cc1` [Compound 30, (2S,4R)-1-[(2S)-2-[3-({5-[7-amino-2-(2-hydroxyphenyl)imidazo[1,2-a]pyrimidin-6-yl]pent-4-yn-1-yl}oxy)-1,2-oxazol-5-yl]-3-methylbutanoyl]-4-hydroxy-N-[(1S)-1-[4-(4-methyl-1,3-thiazol-5-yl)phenyl]ethyl]pyrrolidine-2-carboxamide] showed a DC50 of no less than 30 nM.
`Cc1ncsc1-c1ccc([C@H](C)NC(=O)[C@@H]2C[C@@H](O)CN2C(=O)[C@@H](c2cc(N3CCC(CN4CCC(O[C@H]5C[C@H](N6CCC(O[C@H]7C[C@H](C#Cc8cc(-c9ccccc9O)nnc8N)C7)CC6)C5)CC4)CC3)no2)C(C)C)cc1` [Compound 5, (2S,4R)-4-hydroxy-N-[(1S)-1-[4-(4-methyl-1,3-thiazol-5-yl)phenyl]ethyl]-1-[(2R)-3-methyl-2-{3-[4-({4-[(1r,3r)-3-(4-[(1r,3r)-3-{2-[3-amino-6-(2-hydroxyphenyl)pyridazin-4-yl]ethynyl}cyclobutoxy]piperidin-1-yl}cyclobutoxy]piperidin-1-yl}methyl)piperidin-1-yl]-1,2-oxazol-5-yl}butanoyl]pyrrolidine-2-carboxamide] gave a DC50 of less than 2.5 nM and a Dmax greater than 75%.
`Cc1ncsc1-c1ccc([C@H](C)NC(=O)[C@@H]2C[C@@H](O)CN2C(=O)[C@@H](c2cc(N3CCC(CN4CCC5(CC4)CC(N4CCO[C@@H](CN6CC7(CCN(c8cc(-c9ccccc9O)nnc8N)CC7)C6)C4)C5)CC3)no2)C(C)C)cc1` [Compound 18, (2S,4R)-1-[(2R)-2-{3-[4-({2-[(2S)-2-({7-[3-amino-6-(2-hydroxyphenyl)pyridazin-4-yl]-2,7-diazaspiro[3.5]nonan-2-yl}methyl)morpholin-4-yl]-7-azaspiro[3.5]nonan-7-yl}methyl)piperidin-1-yl]-1,2-oxazol-5-yl}-3-methylbutanoyl]-4-hydroxy-N-[(1S)-1-[4-(4-methyl-1,3-thiazol-5-yl)phenyl]ethyl]pyrrolidine-2-carboxamide] showed a DC50 of 10 to 30 nM and a Dmax greater than 75%.
`Cc1ncsc1-c1ccc([C@H](C)NC(=O)[C@@H]2C[C@@H](O)CN2C(=O)[C@H](c2cc(N3CCC(O[C@H]4C[C@H](OCC#Cc5cn6cc(-c7ccccc7O)nc6nc5N)C4)CC3)no2)C(C)C)cc1` [Compound 34, (2S,4R)-4-hydroxy-N-[(1S)-1-[4-(4-methyl-1,3-thiazol-5-yl)phenyl]ethyl]-1-[(2S)-3-methyl-2-(3-{4-[(1r,3r)-3-({3-[7-amino-2-(2-hydroxyphenyl)imidazo[1,2-a]pyrimidin-6-yl]prop-2-yn-1-yl}oxy)cyclobutoxy]piperidin-1-yl}-1,2-oxazol-5-yl)butanoyl]pyrrolidine-2-carboxamide] gave a DC50 of no less than 30 nM.
